According to PubChem BioAssay AID2305 (GlaxoSmithKline (GSK), 2010):
pIC50: −log10 of the molar value.

These compounds were tested on P. falciparum 3D7 growth, pLDH absorbance (assay: P. falciparum 3D7 growth inhibition, dose response, strain 3D7 (AID 2305)).

`Cc1cc2ncn(-c3nccc(NCc4ccc(F)cc4)n3)c2cc1C` and `CNCCNCc1ccc(-c2ccc(-c3nc4ccc(F)cc4[nH]3)s2)cc1` are within 0.2 log units of each other in pIC50: 6.05 for the first, 6.11 for the second.

`Cc1ccc(NC(=O)c2ccc3ncccc3c2)cc1OC1CCN(Cc2ccsc2)C1` (centres undefined) and `CN1CCCN(Cc2cccc(-c3cccc(NC(=O)c4cccc(C#N)c4)c3)c2)CC1` are within 0.2 log units of each other in pIC50: 6.10 for the first, 6.09 for the second.

Going from `COc1ccc(-c2cncc3ccc(C(=O)NCCCn4ccnc4)nc23)cc1` to `COc1ccc(N(C)Cc2cnc3nc(N)nc(N)c3n2)cc1`, the pIC50 rises from 6.12 to 6.55 (0.43 log units).

`CC(=O)Nc1ccc2[nH]cc(C3CCN(CCC4CCN(C(=O)/C=C/c5ccc(Cl)c(Cl)c5)CC4)CC3)c2c1` and `O=C(/C=C/c1ccc(Cl)c(Cl)c1)NCCCCCN1CCC(NC(=O)Nc2ccccc2F)CC1` are within 0.2 log units of each other in pIC50: 6.11 for the first, 6.08 for the second.

Going from `C/C=C1/CN2CC[C@H]1C[C@H]2[C@H](O)c1ccnc2ccc(OC)cc12` to `COc1ccc2ncc(F)c(CCN3CC[C@H](NCc4cc(C#N)c5c(c4)OCCO5)[C@H](O)C3)c2c1`, the pIC50 falls from 6.70 to 6.05 (0.65 log units). The first is the more potent here.

Going from `CN(C)CCCOC(=O)c1cc2cc(-c3ccccc3)ccc2n1S(=O)(=O)Cc1ccccc1` to `CN1CCC(NCc2cccc(-c3cccc(S(=O)(=O)NCc4ccccc4)c3)c2)CC1`, the pIC50 falls from 6.44 to 6.12 (0.32 log units).

`N#Cc1ccc(C(=O)NC2CCN(CCCCCNC(=O)/C=C/c3ccc(Cl)c(Cl)c3)CC2)cc1` and `O=C(NC1CCCCC1)C1CCCN(C(=O)c2ccc(O)c(-c3ccc(Cl)c(Cl)c3)c2)C1` (centres undefined) are within 0.2 log units of each other in pIC50: 6.08 for the first, 6.05 for the second.

Going from `COc1cccc2c(NN=Cc3ccccc3F)ccnc12` to `CCOc1ccc2c(NN=Cc3cccc(OC)c3)cc(C)nc2c1`, the pIC50 rises from 6.03 to 6.92 (0.89 log units). The second is the more potent here.

Going from `CCc1ccccc1N=C1c2c(cccc2[N+](=O)[O-])C(=O)C1C(C)=O` (centres undefined) to `CCCC(C)Nc1nc(C)cc(N[C@@H](Cc2ccccc2)C(=O)NCc2ccc(C)cc2)n1` (some centres undefined), the pIC50 falls from 7.05 to 5.95 (1.10 log units). The first is the more potent here.

Compared with `OC1(c2ccccc2)c2cc(Cl)ccc2OC1c1nc2c(Cl)ccc(Cl)c2o1` (centres undefined), `Nc1ncc(Cc2ccc3c(ccc4ccccc43)c2)c(N)n1` is 0.40 log units lower in pIC50: 6.52 for the first, 6.12 for the second.

Going from `CCN1CCN(CC(O)CNC(=O)Nc2ccc(Cl)cc2)CC1` (centres undefined) to `CN1CCCN(Cc2ccc(-c3ccc(NC(=O)c4ccc(Cl)cc4)cc3)cc2)CC1`, the pIC50 falls from 6.82 to 6.05 (0.77 log units). The first is the more potent here.

`CN1CCC(C(=O)N(Cc2ccc(-c3ccc(CNCCc4ccc(S(C)(=O)=O)cc4)cn3)cc2)Cc2cccc(F)c2)CC1` and `NCc1ccc(CNCc2cccc(-c3ccc(-c4nc5ccccc5[nH]4)cc3)c2)cc1` are within 0.2 log units of each other in pIC50: 6.15 for the first, 6.14 for the second.

`NC(N)=NC(=O)Nc1ccc([N+](=O)[O-])c(Cl)c1` and `CN1CC=C(c2csc3ccc(NC(=O)Nc4ccc(-c5ccncc5)c5ccccc45)cc23)CC1` are within 0.2 log units of each other in pIC50: 6.06 for the first, 6.10 for the second.

Going from `O=C(NC1CCCCC1)c1csc(C2CCCN(C(=O)c3ccc(O)c(-c4cccc(C(F)(F)F)c4)c3)C2)n1` (centres undefined) to `Cc1cc(N[C@@H](Cc2ccccc2)C(=O)NC2CCCC2)nc(NCCc2ccc(F)cc2)n1`, the pIC50 rises from 5.78 to 6.10 (0.32 log units). The second is the more potent here.

`c1ccc2c(NCCOCCNc3c4ccccc4nc4ccccc34)c3ccccc3nc2c1` and `Fc1ccc2nc(-c3cccc(-c4cccc(CNCc5cnn(-c6ccccc6)n5)c4)c3)[nH]c2c1` are within 0.2 log units of each other in pIC50: 6.06 for the first, 6.01 for the second.

Going from `O=C(CN1CCC2(CCC1=O)CC(=O)c1ccccc1O2)NCCN1CCOCC1` (centres undefined) to `CCOC(=O)N1CCN(CCCNc2c3ccc(Cl)cc3nc3ccc(OC)cc23)CC1`, the pIC50 rises from 6.66 to 7.00 (0.34 log units).

First: CCN(CC)CCN(Cc1ccc(-c2ccc(C(F)(F)F)cc2)nc1)C(=O)Cn1cc(Cc2cnn(C)c2)c(=O)n2nc(-c3ccccc3)cc12
Second: CC(C)(C)c1ccc(NC(=O)N[C@@H]2CCN(c3ccnc4ccccc34)C2)cc1
The pIC50 of the first is 0.46 log units lower: 6.00 for the first, 6.46 for the second.

First: Cc1nc(SCC(=O)N2CCCC2=O)c2c(C)c(C)sc2n1
Second: COc1cc(Cc2cnc(N)nc2N)cc(OCCCC#N)c1OC
The pIC50 of the first is 0.78 log units higher: 6.77 for the first, 5.99 for the second.

`C=CCO[C@@H]1O[C@H](COC(c2ccccc2)(c2ccccc2)c2ccccc2)[C@@H](OC(C)=O)[C@H](OC(C)=O)[C@H]1NC(C)=O` and `O=C(n1c(-c2cc3ccccc3n2C(=O)C(F)(F)F)cc2ccccc21)C(F)(F)F` are within 0.2 log units of each other in pIC50: 6.18 for the first, 6.06 for the second.

For `Oc1c(CN2CCC(Cc3ccccc3)CC2)cc(Cl)c2cccnc12`, the pIC50 was 6.06.
